From patent US20240229155A1, “M[…] FOR THE TREATMENT OF GLIOBLASTOMA AND OTHER CANCERS” (Duke University, priority 2021, published 2024)
Entries after “also recorded” stand apart in the source; their conditions may differ.

Key:
DNMT1 = target: T1, DNMT1 (Homo sapiens, UniProt P26358); test: Western blot of DNMT1 after decitabine treatment of GBM cell lines; format: cell-based; conditions: 250 nM decitabine for 5 days vs DMSO; GBM cell lines with high STING promoter methylation
T1 construct: Western blot analysis showing DNMT1 and STING expression following decitabine or DMSO treatment; endogenous in cells; host or cells: GBM/glioma cell lines
Method: (§1) Cells were seeded at density of 30,000 cells/well in 6-well plates. Each cell line was seeded in 2 mL of the same media in which they were cultured (cells were cultured in media according to ATCC). The following day (Day 0), a volume of decitabine working solution was added directly to the wells to reach the desired concentration. In the DMSO control wells, DMSO was diluted 1:100 in PBS, with the same amount of DMSO:PBS solution added as that of the decitabine condition. On days 1-5, the media was refreshed, such that the media being added to the wells contained the respective decitabine/DMSO concentration and were prepared immediately before their addition. The cells were harvested for protein on day 6.
(§2) Western Blots: Cells were washed 2× with ice cold 1×PBS and lysed on ice with RIPA lysis buffer, containing protease/phosphatase inhibitors, and benzonase. Lysates were spun down for 15 min 14,000×g at 4 degrees C. Protein was denatured, ran on 4-12% NuPage Bis-Tris gels in 1×MOPS buffer, and transferred to PVDF membrane. The membrane was blocked in 5% Blotting grade blocker (BioRad 170-6404) dissolved in 1×TBS 0.1% TWEEN. Primary antibody was added according to manufacturer's protocol and incubated overnight at 4° C. Membranes were then incubated with secondary HRP antibody and screened with Supersignal Pico ECL. […]

[1] = tested on: CpG sites in a ~400 nucleotide window centered on cg16983159; test: Semi-quantitative methylation sequencing assay of bisulfite-treated glioma cell lines; format: cell-based, human; conditions: LN229 and U138 cells, decitabine vs DMSO
Method: Semi-quantitative methylation sequencing assay: Bisulfite treated DNA was PCR amplified for 40 cycles at 62° C. annealing temperature. Amplification reaction—10 μM of each primer, 25 mM MgCl2, 2.5 mM dNTPs, lx buffer, 0.7U HotStarTaq (Qiagen). Amplicons were sent to Azenta for purification and sanger sequencing with difficult template. Sequence traces were aligned. Percent methylation at the CpGs in the amplicons were estimated by comparing the C peak to the T peak.
(§3) Cell treatment with decitabine: Decitabine (Millipore-Sigma) was dissolved in DMSO to stock concentration of 10 mM and diluted directly before each treatment in 1×PBS. Cells were seeded at 3×10^4 cells/well in 6-well plates (protein) or 1.7×10^5 cells in 10 cm dishes (RNA/DNA). Matched concentrations of DMSO was used as a control. Media was refreshed with treatment daily for 5 days. Cells were harvested for protein, RNA and DNA on day 6, or treated with 2′3′-cGAMP for an additional 4 and 24 h and harvested for protein.

STING pathway = test: Western blot for STING pathway activation: decitabine pretreatment followed by 2′3′-cGAMP; format: cell-based, human; conditions: for STING pathway activation (pTBK1 and pIRF3 expression) in response to cGAMP: 250 nM decitabine for 5 days, then 2′3′-cGAMP, protein at 4 h and 24 h, cell lines previously unresponsive to cGAMP
Method: (§4) Western Blots: Cells were washed 2× with ice cold 1×PBS and lysed on ice with RIPA lysis buffer, containing protease/phosphatase inhibitors, and benzonase. Lysates were spun down for 15 min 14,000×g at 4 degrees C. Protein was denatured, ran on 4-12% NuPage Bis-Tris gels in 1×MOPS buffer, and transferred to PVDF membrane. The membrane was blocked in 5% Blotting grade blocker (BioRad 170-6404) dissolved in 1×TBS 0.1% TWEEN. Primary antibody was added according to manufacturer's protocol and incubated overnight at 4° C. Membranes were then incubated with secondary HRP antibody and screened with Supersignal Pico ECL. A ChemiDoc MP (BioRad) and an iBright 1500FL imager (ThermoFisher) were used to detect the ECL signal.
Protein Isolation and Western Blotting: Cells were washed 2× with ice cold 1×PBS and lysed on ice with RIPA lysis buffer, containing protease/phosphatase inhibitors, and benzonase. Lysates were spun down for 15 min at 14,000×g at 4° C. Protein was denatured at 95° C. for 5 min, ran on 4-12% NuPage Bis-Tris gels in 1×MOPS buffer, and transferred to PVDF membrane. The membrane was blocked in 5% Blotting grade blocker (BioRad) dissolved in 1×TBS 0.1% TWEEN20. Primary antibody was added according to manufacturer's protocol and incubated overnight at 4° C. Membranes were incubated with secondary HRP antibody (Cell Signaling) and screened with Supersignal Pico ECL (ThermoFisher). A ChemiDoc MP (BioRad) and an iBright 1500FL imager (ThermoFisher) were, used to detect the ECL signal. Primary antibodies were used to the following targets: pSTING (Ser366), STING, cGAS, pTBK1 (Ser172), TBK1, pIRF3 (Ser396), IRF3, pSTAT1 (Tyr701), STAT1, IFIT1, ISG15, DNMT1, β-actin (Cell Signaling), IRF3 (Biolegend).
as §3, with “Cells were harvested for protein, RNA and DNA on day 6, or treated with 2′3′-cGAMP for an additional 4 and 24 h and harvested for protein.” left out

STING (TMEM173) mRNA = test: STING mRNA expression (qPCR) after decitabine treatment of GBM cell lines; format: cell-based, human; conditions: 250 nM decitabine for 5 days vs DMSO, normalized to beta actin
Method: (§5) Decitabine Treatment: Decitabine was dissolved in DMSO to produce a stock concentration of 10 mM. This stock concentration was diluted directly before each treatment at a 1:100 ratio with 1×PBS to create the working solution with a concentration of […].
(§6) Cells were seeded at density of 30,000 cells/well in 6-well plates. Each cell line was seeded in 2 mL of the same media in which they were cultured (cells were cultured in media according to ATCC). The following day (Day 0), a volume of decitabine working solution was added directly to the wells to reach the desired concentration. […]
Protocol for mRNA Expression: RNA expression was measured by converting 250 ng to lug of RNA to cDNA with the iScript cDNA conversion kit (BioRad Cat #1708891) in 20 μL total. […]
20× PrimePCR Primers targeting B-actin (BioRad #qHsa CED0036269), and TMEM173 (BioRad #qHsa CID00010565), were used. Fold change (2^(−Delta Delta Ct) was calculated using B-actin as the housekeeping gene.
Quantitative gene expression analysis: RNA/DNA were co-extracted from cells using Qiagen AllPrep DNA/RNA/miRNA Universal Kit mini kit (Qiagen) for decitabine experiments, and Quick-DNA/RNA™Miniprep Kit for baseline cell expression/methylation, following the manufacturer's protocols. RNA expression was measured by converting 250 ng to 1 μg RNA to 25 cDNA with the iScript cDNA conversion kit (BioRad). […]

cGAS = test: Western blot of cGAS after decitabine treatment of GBM cell lines; format: cell-based, human; conditions: 250 nM decitabine for 5 days vs DMSO
Method: as §1, §2

[2] = tested on: STING promoter CpG site cg16983159; test: cg16983159 site-specific methylation qPCR assay after decitabine treatment of GBM cell lines; format: cell-based, human; conditions: 250 nM decitabine for 5 days vs DMSO; GBM cell lines with high STING promoter methylation
Method: as §5
as §6, with “concentration. In the DMSO control wells, DMSO was diluted 1:100 in PBS, with the same amount of DMSO:PBS solution added as that of the decitabine condition.” for “concentration.”
STING Methylation qPCR Methods: Bisulfite conversion of 25 ng to lug gDNA was done using the EpiTect Bisulfite Kit (Qiagen 59104) following manufactures protocol. […] Percent methylation was calculated as 1/(1+1/(2^-ΔCt))×100 with ΔCt=FAM −VIC. […]
cg16983159 site-specific methylation qPCR assay: A site-specific qPCR assay for measuring cg16983159 methylation was developed using the method described by Yu et al. (Yu et al., 2019). […] Percent methylation was calculated as 100%×1/1+2ΔCt where ΔCt=FAM−VIC. […]

STING = test: Western blot of STING after decitabine treatment of GBM cell lines; format: cell-based, human; conditions: 250 nM decitabine for 5 days vs DMSO
Method: as §1, §2

[3] = tested on: cGAS/STING DNA sensing pathway; test: Response of GBM cell lines to cGAS (ISD) and STING (cGAMP) agonists, Western blot; format: cell-based, human
Method: as §4
Protein Isolation and Western Blotting: Cells were washed 2× with ice cold 1×PBS and lysed on ice with RIPA lysis buffer, containing protease/phosphatase inhibitors, and benzonase. Lysates were spun down for 15 min at 14,000×g at 4° C. Protein was denatured at 95° C. for 5 min, ran on 4-12% NuPage Bis-Tris gels in 1×MOPS buffer, and transferred to PVDF membrane. The membrane was blocked in 5% Blotting grade blocker (BioRad) dissolved in 1×TBS 0.1% TWEEN20. Primary antibody was added according to manufacturer's protocol and incubated overnight at 4° C. Membranes were incubated with secondary HRP antibody (Cell Signaling) and screened with Supersignal Pico ECL (ThermoFisher). […]

GBM cell suspensions = test: Cytokine secretion of CD14-separated GBM cell suspensions after 2′3′-cGAMP; format: cell-based, human; conditions: GBM cell suspensions separated by CD14; 48 h
[4] = tested on: GBM tissue slice cultures; test: Ex vivo GBM slice culture assay with 2′3′-cGAMP; format: cell-based, human; conditions: 5 μg/ml, 48 h, TAMC vs tumor cells
Method: GBM slice culture assay: Surgically resected, de-identified newly diagnosed GBM tissue was acquired under a Duke IRB approved protocol within hours of resection. Slice culture studies in this manuscript are extended/additional analyses of slice culture data sets reported in a prior study where the pattern of PRR signaling vs virotherapy was compared (Brown et al., 2021). A portion (˜25%) of fresh tissue was analyzed by flow cytometry to determine relative immune cell subset densities using the following flow cytometry panel after 1:20 Human Tru-Stain FcX treatment (BioLegend): CD45-BUV395 (BD Biosciences), CD14-BV421, CD33-BV510, CD49d-BV605, HLA-DR-BV786, CD31-FITC, CD3/19-BUV737, CD11b-APC, CD16-BV711, CD15-APC-fire7, and either CD155-PE or isotype control-PE antibody (all BioLegend); viability stain (7-AAD, BioLegend) was added after staining. Fresh remaining tissue was sliced into quarters, followed by slicing to −2 mm diameter fragments with a #10 scalpel (Hill-Rom). Slices were cultured in RPMI-1640 (Invitrogen) supplemented with 10% FBS (Sigma-Aldrich), 100 ng/ml EGF (R&D Biosystems); 5 μg/ml insulin (Gibco); 100 ng/ml hydrocortisone (Sigma-Aldrich). […] Supernatant cytokines were measured using the Human Antiviral Legendplex kit and Human Pro-inflammatory Chemokine kit (both BioLegend), per manufacturer's instructions. […]

[5] = tested on: GBM tissue slice cultures; conditions: ex vivo GBM tissue slice cultures (Brown et al., 2021); cited from earlier work

T1 sequence (P26358 whole entry): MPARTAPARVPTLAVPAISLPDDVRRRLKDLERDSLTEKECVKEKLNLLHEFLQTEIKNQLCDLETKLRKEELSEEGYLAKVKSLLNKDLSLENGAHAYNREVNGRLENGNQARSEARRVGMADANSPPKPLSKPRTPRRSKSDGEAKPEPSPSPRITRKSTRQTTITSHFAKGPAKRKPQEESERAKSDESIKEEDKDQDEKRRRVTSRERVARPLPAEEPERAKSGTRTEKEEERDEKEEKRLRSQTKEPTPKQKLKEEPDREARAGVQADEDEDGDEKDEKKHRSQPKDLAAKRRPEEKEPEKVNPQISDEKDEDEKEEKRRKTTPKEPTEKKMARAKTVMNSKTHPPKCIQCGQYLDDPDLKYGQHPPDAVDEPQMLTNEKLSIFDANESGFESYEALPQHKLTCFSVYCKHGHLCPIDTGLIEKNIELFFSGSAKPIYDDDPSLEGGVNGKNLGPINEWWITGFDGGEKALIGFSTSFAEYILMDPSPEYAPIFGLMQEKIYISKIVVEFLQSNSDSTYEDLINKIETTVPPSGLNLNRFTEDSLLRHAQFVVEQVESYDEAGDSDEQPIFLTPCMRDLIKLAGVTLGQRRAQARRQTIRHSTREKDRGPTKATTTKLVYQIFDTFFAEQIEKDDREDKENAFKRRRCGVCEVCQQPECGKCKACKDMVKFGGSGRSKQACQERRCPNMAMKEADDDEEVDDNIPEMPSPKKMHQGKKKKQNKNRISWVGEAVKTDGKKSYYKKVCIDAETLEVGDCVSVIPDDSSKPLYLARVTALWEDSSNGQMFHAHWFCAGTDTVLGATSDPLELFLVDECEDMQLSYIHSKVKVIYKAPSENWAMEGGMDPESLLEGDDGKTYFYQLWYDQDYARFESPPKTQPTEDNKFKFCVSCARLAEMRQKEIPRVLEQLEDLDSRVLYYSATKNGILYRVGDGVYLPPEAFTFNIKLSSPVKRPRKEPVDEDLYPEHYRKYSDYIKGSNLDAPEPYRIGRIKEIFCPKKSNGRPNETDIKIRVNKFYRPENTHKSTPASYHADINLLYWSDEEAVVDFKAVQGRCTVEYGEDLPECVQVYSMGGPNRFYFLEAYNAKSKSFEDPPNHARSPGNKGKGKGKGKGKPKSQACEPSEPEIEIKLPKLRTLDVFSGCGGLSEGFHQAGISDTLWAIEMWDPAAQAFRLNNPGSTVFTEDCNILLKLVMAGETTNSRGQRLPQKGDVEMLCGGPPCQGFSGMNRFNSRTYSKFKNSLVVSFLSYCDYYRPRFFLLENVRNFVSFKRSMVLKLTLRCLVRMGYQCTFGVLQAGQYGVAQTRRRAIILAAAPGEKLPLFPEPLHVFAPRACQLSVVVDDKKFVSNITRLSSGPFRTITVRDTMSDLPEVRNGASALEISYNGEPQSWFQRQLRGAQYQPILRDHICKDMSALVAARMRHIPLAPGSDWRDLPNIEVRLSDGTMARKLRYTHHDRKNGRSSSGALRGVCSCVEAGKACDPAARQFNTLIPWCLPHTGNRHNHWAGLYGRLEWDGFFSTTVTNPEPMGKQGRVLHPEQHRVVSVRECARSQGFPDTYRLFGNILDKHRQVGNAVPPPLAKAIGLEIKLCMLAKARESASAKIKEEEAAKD

Structure (SMILES) | DNMT1 expression (Western blot) (DNMT1) | methylation state of CpG sites around cg16983159 (bisulfite sequencing) [1] | STING pathway activation (pTBK1 and pIRF3 expression) in response to cGAMP (STING pathway) | STING pathway activation (pTBK1 and pIRF3 expression) in response to cGAMP (STING pathway; listed as decitabine) | markers of downstream IFN activation (pSTAT1, IFIT1, ISG15) (STING pathway; decitabine pretreatment for 5 days followed by cGAMP) | STING mRNA expression (STING (TMEM173) mRNA) | cGAS expression (Western blot) (cGAS) | STING cg16983159 methylation [2] | STING protein expression (STING) | downstream response (pTBK1, pIRF3) to STING agonist ([3]; A172 cell line, high baseline STING expression) | downstream response (pTBK1, pIRF3) to STING agonist ([3]; U138MG cell line, no STING expression) | CXCL10 induction (GBM cell suspensions) | TNF induction (GBM cell suspensions) | IFIT1 induction (flow cytometry) [4] | CXCL10 induction [5] | type I IFNs induction [5]
Nc1ncn([C@H]2C[C@H](O)[C@@H](CO)O2)c(=O)n1 [Decitabine, 5-azadeoxycytidine] | significant suppression; also recorded: suppressed | cg16983159 and upstream CpG sites are demethylated, while downstream sites are not | restores STING signaling | reactivation or enhancement of the pathway | induced | increased | induces | decreased | increased |  |  |  |  |  |  | 
Nc1nc2c(ncn2[C@@H]2O[C@@H]3COP(=O)(O)O[C@H]4[C@@H](O)[C@H](n5cnc6c(N)ncnc65)O[C@@H]4COP(=O)(O)O[C@@H]2[C@@H]3O)c(=O)[nH]1 [cGAMP, 2′3′-cGAMP] |  |  |  |  |  |  |  |  |  | strong downstream response | failed to activate pTBK1 or pIRF3 | occurred only in CD14+ containing glioma cell suspensions | occurred only in CD14+ containing glioma cell suspensions | induced selectively in TAMC | induced | induced
